Measurements: patent publication US9694089B2, “Integrin targeting agents and in-vivo and in-vitro imaging methods using the same” (Visen Medical, Inc., priority 2008, dated 2017)
Blank lines part the entries; values can stand above or below the compound they belong to.

How the values were obtained:
ανβ3 [1] = target: T1, ανβ3 (Homo sapiens, UniProt P05106+P06756); assay: Inhibition of cell attachment to vitronectin, HEK293-ανβ3 cells; type: cell-based; settings: for IC50: HEK293-ανβ3 cells, vitronectin-coated wells, 2 hours at 37° C., read-out: IC50 (nM), inhibition of cell attachment to vitronectin, αvβ3
T1 construct: expressed in transfected cells; host or cells: HEK293
Method: (§1) In this experiment, human embryonic kidney (HEK293) cells stably transfected with ανβ3 (HEK293-ανβ3 cells) were released with trypsin-EDTA and washed four times with serum-free MEM. […] Non-attached cells were gently washed away. Similar experiments were carried out with HEK293 cells stably transfected with ανβ5, α11bβ3, or α5β1. The attached cells were quantified by colorimetric detection of hexosaminidase enzymatic activity in a Vmax plate reader (Molecular Devices, Menlo Park, Calif.). The number of attached cells was quantified using a standard curve for each cell line assayed and expressed as a mean value of triplicate samples.

ανβ5 = target: T2, ανβ5 (Homo sapiens, UniProt P06756+P18084); assay: Inhibition of cell attachment to vitronectin, HEK293 cells transfected with ανβ5; type: cell-based; settings: for IC50: HEK293 cells stably transfected with ανβ5, read-out: IC50 (nM), inhibition of cell attachment to vitronectin, αvβ5
T2 construct: expressed in transfected cells; host or cells: HEK293
Method: as §1

αIIbβ3 = target: T3, αIIbβ3 (Homo sapiens, UniProt P05106+P08514); assay: Inhibition of cell attachment to vitronectin, HEK293 cells transfected with αIIbβ3; type: cell-based; settings: for IC50: HEK293 cells stably transfected with αIIbβ3
T3 construct: expressed in transfected cells; host or cells: HEK293
Method: as §1

α5β1 = target: T4, α5β1 (Homo sapiens, UniProt P05556+P08648); assay: Inhibition of cell attachment to vitronectin, HEK293 cells transfected with α5β1; type: cell-based; settings: for IC50: HEK293 cells stably transfected with α5β1
T4 construct: expressed in transfected cells; host or cells: HEK293
Method: In this experiment, human embryonic kidney (HEK293) cells stably transfected with ανβ3 (HEK293-ανβ3 cells) were released with trypsin-EDTA and washed four times with serum-free MEM. Cells (25,000 cells/well) were added to microtiter wells coated with vitronectin and allowed to attach for 2 hours at 37° C. in a humidified incubator in the absence or presence of increasing concentrations of compound E-6 or unlabelled parent compound (as an inhibitor of E-6). Non-attached cells were gently washed away. Similar experiments were carried out with HEK293 cells stably transfected with ανβ5, α11bβ3, or α5β1. The attached cells were quantified by colorimetric detection of hexosaminidase enzymatic activity in a Vmax plate reader (Molecular Devices, Menlo Park, Calif.). The number of attached cells was quantified using a standard curve for each cell line assayed and expressed as a mean value of triplicate samples.

ανβ3 [2] = target: T1, ανβ3; assay: Confocal microscopy cell binding assay on HEK293-ανβ3 cells; type: cell-based
Method: Cell binding assays using HEK293 cells stably expressing human ανβ3 were performed.
HEK293 cells stably transfected with ανβ3 (HEK293-ανβ3 cells) were plated onto poly-L-lysine coated Lab-Tek II chambered coverglass (Nuns, Rochester, N.Y.) the day before the assay. Cells were first incubated with DAPI (10 μg/ml) for 3 hours, followed by CellMask (Invitrogen, Carlsbad, Calif.) staining for 5 minutes. Cells were then washed 2× with PBS and incubated with E-6 (200 nM in PBS containing 5% serum) at 4° C. or 37° C. for 30 minutes. For the competition study, cells were incubated with parent compound (200 μM) for 1 hour before E-6 incubation. Confocal microscopy was performed on a Leica SP5 confocal system (Leica, Wetzlar, Germany).

[3] = tested on: HUVEC (Human umbilical vein endothelial cells); assay: Cell binding assay by fluorescence microscopy, HUVEC; type: cell-based
Method: (§2) Cell binding assays were performed using HUVEC (Human umbilical vein endothelial cells) and human rhabdomyosarcoma A673 tumor cells. HUVEC or A673 (50,000 cells) (ATCC, Manassas, Va.) were seeded unto 8-well Lab-Tek chamberslides (Nalge-Nunc International, Naperville, Ill.) and left to adhere overnight at 37° C. in a humidified atmosphere containing 5% CO2. The following day, the medium was changed to fresh complete medium containing compound E-6 or free dye (20 nM), incubated for 30 minutes at 37° C., washed 2×with PBS and fixed with paraformaldehyde for 30 minutes at 4° C. Competition studies were performed by pre-incubating the cells for 5 minutes with parent compound (200 nM) before addition of E-6. The cells on the microscopy slides were then allowed to air dry protected from light. The slides were mounted with ProLong® Gold antifade reagent with DAPI (Molecular Probes, Eugene, Oreg.) and cured overnight at room temperature protected from light. Merged images of the nuclear staining (DAPI) and fluorescent signals were collected using fluorescence microscopy (Zeiss, Thornwood, N.Y.)

[4] = tested on: human rhabdomyosarcoma A673 tumor cells; assay: Cell binding assay by fluorescence microscopy, A673 tumor cells; type: cell-based
Method: as §2

A673 tumors [5] = assay: In vivo FMT imaging and quantification of signal in A673 tumor-bearing mice; parameters: species or system NU/NU mice
Method: Female NU/NU mice 6-8 weeks old (Charles River Laboratory, Wilmington, Mass.) were injected subcutaneously (s.c.) with A673 cells (5×10^6) in the first mammary fat pads. Once tumors reached the desired volume (measured with calipers using the formula volume mm^3=(length×width^2)/2), mice were injected i.v. with E-6 ([…]) in the absence or presence of excess, competing parent compound (100 nmoles). Control mice received free dye. For in vivo imaging, mice were anesthetized by gas anesthesia (isoflurane/oxygen mixture), placed in the VisEn's FMT2500 system imaging chamber one at a time, and imaged.
The fluorescent signal was quantified by drawing a three-dimensional ROI encompassing each tumor.

A673 tumors [6] = assay: Effect of Avastin treatment on integrin and cathepsin B signals in A673 tumor-bearing mice; type: in vivo
Method: A673 tumor-bearing mice were randomized once their tumors reached the desired volume and injected i.v. with either E-6 (2 nmoles) or free dye (2 nmoles). For competition studies, mice were injected with the parent compound (100 nmoles) followed 5 minutes later by compound E-6 ([…]). For therapy studies, mice were treated with either 2 mg/kg Avastin (bevacizumab, Genentech, CA) or vehicle (PBS) intraperitoneally (i.p.) 2× week, and injected 7 days after beginning the treatment with 2 nmoles each of compound E-6 and ProSense (ProSense750, VisEn Medical, Bedford, Mass.) in a final volume of 200 μl PBS. ProSense is a protease-activatable fluorescence agent comprising fluorochromes linked to a peptide scaffold. Proteolytic cleavage of the scaffold by cathepsin B activity (and to a lesser extent cathepsins K, L, and S) releases the fluorochromes and results in extensive fluorescence (via dequenching). Imaging was performed 24 hours after administration of the agents using the FMT2500. Differential localization of fluorescent signal with compound E-6 and ProSense can be seen in the same animal. The wavelength of the laser was selected to 680 nm or 750 nm, corresponding to the absorption spectra of the fluorescent agents administered to the animal, enabling simultaneous imaging and quantification of 2 spectrally distinct agents.

ανβ3 [7] = target: T1, ανβ3; assay: Equilibrium binding and dissociation measurements by flow cytometry on HEK293-ανβ3 cells
Method: The amount of probe bound to integrins on HEK293-ανβ3 cells was determined by flow cytometry (FACSCalibur, BD Biosciences, CA). Data was analyzed using FlowJo software and Kd values were calculated using SigmaPLot 10 software. For koff determination, HEK293-ανβ3 cells (1×10^6) were incubated with 100 nM of E-6 at 4° C. for 30 minutes and labeled cells were than transferred into PBS containing 10 mM of parent compound. The amount of probe bound to the integrins on HEK293-ανβ3 cells was determined by flow cytometry (FACSCalibur, BD Biosciences, CA) before mixing with unlabeled compound, and 1, 1.5, 2.5, 3.5, 4.5, 5.5, and 24 hours after mixing. Data was analyzed using FlowJo software and koff and t1/2 values calculated using SigmaPLot 10 software.

[8] = Plasma pharmacokinetics in mice; type: in vivo, BALB/c mice; settings: 2 nmoles i.v. bolus, two compartmental model
From the text: Twenty-four female retired breeder BALB/c mice (Charles River Laboratories, Wilmington, Mass.) received a bolus intravenous (i.v.) injection of compound E-6 (2 nmoles in PBS). Terminal blood samples were collected by cardiac puncture from each mouse (following carbon dioxide asphyxiation). Three mice were sampled for each time point. Plasma was collected by centrifugation, diluted 1:2 in DMSO and fluorescence read using a fluorescence plate reader (Molecular Devices, Sunnyvale, Calif.). Data was normalized to a standard curve (FIG. 5A) prepared with known concentrations of E-6.

[9] = Biodistribution in A673 tumor-bearing mice; type: in vivo, NU/NU mice; settings: 2 nmoles i.v., 24 hr
Method: For the biodistribution studies, female NU/NU mice 6-8 weeks old (Charles River Laboratory, Wilmington, Mass.) were injected subcutaneously (s.c.) with A673 cells (5×10^6) in the first mammary fat pads. Once tumors reached the desired volume (measured with calipers using the formula volume mm^3=(length×width^2)/2), mice were injected i.v. with compound E-6 (2 nmoles). Mice were sacrificed by carbon dioxide asphyxiation 24 hr later and certain tissues removed, rinsed with saline, blotted dry, and the imaged on VisEn's FMT2500 using the reflectance mode. Regions of interest (ROIs) were drawn around each organ using the FMT Software and the mean fluorescence (reported as counts/energy) determined for each organ and normalized to the mean fluorescence in tumors taken to be 100%.

4T-1 tumors = assay: In vivo imaging of 4T-1 tumors; parameters: species or system NU/NU mice; settings: 4 nmoles i.v., 24 hours post-injection
Method: In this experiment, NU/NU mice 6-8 weeks old (Charles River Laboratory, Wilmington, Mass.) were injected subcutaneously (s.c.) with 2×10^6 4T-1 cells bilaterally in each mammary fat pad. When tumors reached an approximate size of 3×3 mm (around 7 days after cell injection), mice were injected intravenously (i.v.) with 4 nmoles of each integrin agent (5 mice/probe+2 mice/no probe as control) in 100 μL volume via tail vein. Imaging was conducted 24 hours post-injection using a Fluorescence Molecular Tomography system (VisEn Medical, Bedford, Mass.).

[10] = pre-incubation 5 minutes with parent compound 200 nM
[11] = agent 20 nM, 30 minutes at 37° C.

IC50 (ανβ3 [1]): 0.82 ± 0.2 nM
IC50 (ανβ5): 1.3 ± 0.2 nM
IC50 (αIIbβ3): > 10000 nM
IC50 (α5β1): > 10000 nM
effect on binding of E-6 to HEK293-ανβ3 cells (competition) (ανβ3 [2]; parent compound 200 μM for 1 hour before E-6 incubation): prevented
Compound: Nc1ncnc2c1ncn2[C@@H]1O[C@H](OCP(=O)(O)O)C=C1F [Parent Compound, reference compound]
E-6 fluorescence intensity from HUVEC cells in the presence of a blocking dose [3, 10]: reduced
E-6 fluorescence intensity from A673 cells in the presence of a blocking dose [4, 10]: reduced
effect on total amount of E-6 signal in tumors (competition) (A673 tumors [5]; excess parent compound 100 nmoles, in words): effectively reduces
decrease of total E-6 fluorescence in tumors (A673 tumors [5]; parent compound 100 nmoles versus E-6 alone, p=0.011): 67%

Compound: Avastin: Avastin (bevacizumab, Genentech, CA), anti-angiogenic treatment [reference compound]
effect of treatment on signal produced by compound E-6 in tumors (A673 tumors [6]; Avastin 2 mg/kg i.p. 2× week, agents injected after 7 days): decreased

IC50 (ανβ3 [1]): 4.1 ± 0.3 nM
loss of affinity to ανβ3 compared to the parent compound (ανβ3 [1]; ratio of Table 4 IC50 values): 5 fold
IC50 (ανβ5): 33 nM
loss of affinity to ανβ5 compared to the parent compound (ανβ5; ratio of Table 4 IC50 values): 25 fold
IC50 (αIIbβ3): 39 nM
potency in binding to α11bβ3 compared to the parent compound (αIIbβ3; in words): retains higher potency
IC50 (α5β1): > 2000 nM
specific binding to α5β1 (α5β1; in words): no specific binding
koff (ανβ3 [7]; 100 nM E-6, 4° C., HEK293-ανβ3 cells, chase with parent compound, read-out: dissociation rate constant koff): 0.000108 s⁻¹
Kd (ανβ3 [7]; HEK293-ανβ3 cells, 4° C., 30 minutes, single binding site model, read-out: apparent equilibrium binding constant (Kd)): 4.2 ± 0.6 nM
binding isotherms in the absence or presence of Mn^2+ (ανβ3 [7]; in words): practically identical
plasma t(1)1/2 (free E-6 clearing from circulation) [8]: 6 min
plasma t(2)1/2 (clearance of bound E-6) [8]: 210 min
Compound: Cc1ncc([C@@H](CCCCCCc2nc3c(cc2CNC(=O)CCCN(C)S(=O)(=O)c2cccc4c5c(ccc24)N(CCCS(=O)(=O)O)/C(=C/C=C/C=C/C2=[N+](CCS(=O)(=O)[O-])c4ccc6c(S(=O)(=O)O)cc(S(=O)(=O)O)cc6c4C2(C)C)C5(C)C)CCCN3)CC(=O)O)cn1 [Compound E-6]
internalization (receptor recycling, endocytosis) (ανβ3 [2]; 37° C. versus 4° C.): internalization at 37° C., but not at 4 °C
binding to HEK293-ανβ3 cells (confocal microscopy) (ανβ3 [2]; E-6 200 nM, 30 minutes, 4° C. or 37° C.): binds to the receptors on the surface of the cells
tissue distribution of fluorescence [9]: highest concentration found in tumors, followed by the liver, small intestine and skin
fluorescent signal of labeled HUVEC cells [3, 11]: Significant fluorescent signal
fluorescent signal of labeled A673 cells [4, 11]: Significant fluorescent signal
fluorescence in tumors (FMT imaging) (A673 tumors [5]; A673 tumor-bearing mice, agent i.v., in words): readily detected
signal produced in tumors following Avastin treatment (A673 tumors [6]; A673 tumor-bearing mice, 2 nmoles agent, imaging 24 hours after): decreased by a greater amount than the signal produced by ProSense
imaging of tumors in vivo (4T-1 tumors): imaged effectively

Compound: CCN1/C(=C/C=C(/C=C/C2N(CC)c3ccc4c(S(=O)(=O)O)cc(S(=O)(=O)O)cc4c3C2(C)C)c2ccc(C(=O)NCCCCCC(=O)NCc3cc4c(nc3CCCCCC[C@@H](CC(=O)O)c3cnc(C)nc3)NCCC4)cn2)C(C)(C)c2c1ccc1c(S(=O)(=O)O)cc(S(=O)(=O)O)cc21 (some centres unmarked) [Compound E-7]
imaging of tumors in vivo (4T-1 tumors): imaged effectively
